Measured values as given in US20090215693A1, “METHODS FOR INCREASING HYALURONIC ACID LEVELS AND IMPROVING MOISTURE RETENTION IN TISSUE” (priority 2008, published 2009).

Tested on: Fibroblasts
Assay: Hyaluronic acid production by cultured fibroblasts (ELISA of culture medium)
Assay type: cell-based
Conditions: fibroblasts, 48 hours incubation, culture medium
Protocol: Fibroblasts were seeded into individual wells of a 12-well plate in 1.0 ml of Fibroblast Growth Media (FGM) and incubated overnight at 37±2° C. and 5±1% CO2. On the following day the media was removed via aspiration to eliminate non-adherent cells and replaced with 1.0 ml of fresh FGM. Cells were grown until confluent, with a media change every 48 to 72 hours. Upon reaching confluency the cells were treated for 24 hours with DMEM supplemented with 1.5% FBS to eliminate growth factors from the normal culture media. After this 24-hour wash-out period the cells were treated with the indicated test materials (i.e., milk-derived products containing lactoferrin) at the specified concentrations dissolved in FGM with 1.5% FBS. Dibutyrl cAMP (DBcAMP) at 0.1 mM was used as a positive control. Untreated cells (negative control) received FGM with 1.5% FBS. The cells were incubated for 48 hours and at the end of the incubation period cell culture medium was collected and either stored frozen (−75° C.) or assayed immediately. All testing was done in triplicate.
A series of hyaluronic acid standards from 50 ng/ml to 3,200 ng/ml was prepared. […] After incubation, 50 μl of stop solution was added to each well and the absorbance was measured at 405 nm using a plate reader. Hyaluronic acid production was expressed as ng/ml and results are shown in Table 1 and the graph of FIG. 1.

SMILES	HA Measured (amount applied 0.1 mM (positive control)) [ng/mL]	HA Measured (amount applied 4 mM) [ng/mL]
CCCC(=O)Nc1ncnc2c1ncn2[C@@H]1O[C@@H]2COP(=O)(O)O[C@H]2[C@H]1OC(=O)CCC [DBcAMP, dibutyryl cyclic AMP]	416 ± 24	–
CCCC(=O)[O-].[Na+] [Sodium Butyrate]	–	139 ± 6
